Test results as given in US7405305B2 (Eli Lilly and Company, priority 2002, dated 2008).
pIC50: −log10 of the molar value. Structures can show the parent of a compound that is named as a salt. Where two headings read alike, the source gives them in different places.

Legend:
recombinant human GSK-3β = recombinant human GSK-3β (Homo sapiens, UniProt P49841); experiment: Kinase Inhibition Assay (GSK-3β, 33P phosphoCREB peptide filter assay); assay type: biochemical
Text: An important in vitro test is the ability of the compound to inhibit the activity of the GSK-3β enzyme. This test is done according to a standard protocol. (See Fiol, et al, A Secondary Phosphorylation of CREB^341 at Ser^129 Is Required for the cAMP-Mediated Control of Gene Expression: A Role for Glycogen Synthase Kinase-3 in the Control of Gene Expression, J. Biol. Chem., 269, 32187-32193 (1994)).
The catalysis of the reaction:
(pS)YR+AT^33P→KRREIL(^33pS)RRP(pS)YR [measured]+ADP by GSK-3β is measured in a reaction mixture comprised of the following: 50 mM MOPS (4-morpholinepropanesulfonic acid) pH 7.0; 50 μM phosphoCREB peptide; 50 μM ATP; 0.5 μCi ATP[γ-^33P]; 12.5 mM MgCl2; 0.03% Triton-X; 4% DMSO; and 1 nM recombinant human GSK-3β. The reaction is initiated by the addition of enzyme. The final reaction volume is 100 μL. The reaction is allowed to proceed for 60 minutes at room temperature and is stopped by the addition of 75 μL of 10% phosphoric acid. To capture KRREIL(^33pS)RRP(pS)YR formed in the reaction and to remove unreacted AT^33P, 160 μL of the stopped reaction mixture is transferred to a pre-wetted (0.75% phosphoric acid) phosphocellulose microfiltration plate [Millipore Cat.# MAPH NOB 50] and after 90 minutes incubation on the plate, the stopped reaction mixture is passed through the filter using a Titertek Map Extractor. The filter containing the trapped KRREIL(^33pS)RRP(pS)YR is washed with 220 μL of 0.75% phosphoric acid. Filter plates are blotted to remove droplets from the underdrain. The underdrain is removed from the filter and the filter is placed into a clear plate liner (Wallac, Inc.). Added to each well is 100 μL of Microscint 20 (Packard).
After standing at least six hours (preferably overnight), the plates are counted in a Trilux scintillation counter (Wallac, Inc.). The ability of a compound to inhibit GSK-3β is determined by including various concentrations of the compound in the reaction mixture and comparing the signal produced to the signal produced in a reaction mixture without the compound.
The test yields the molar concentration of the test compound that produces a 50% inhibition of the GSK-3β enzyme activity.

[1] = system: β-catenin in AG04160C FAD lymphoblast cells; experiment: β-Catenin Protection Assay; assay type: cell-based, human; conditions: fold induction over basal β-catenin, 24 hours, concentration not given
Protocol: This test measures the fold induction over basal β-catenin and is performed according to standard protocols (Hedgepeth, C. M., Dev. Biol. 185, 82-91 (1997); Chen, G., et al., J. Neurochem., 72, 1327-1330 (1999); Hong, M., et al., J. Biol. Chem., 272, 25326-25332 (1997)).
The human familial Alzheimer's disease (FAD) presenilin-1 AG04160C lymphoblast cell line (Coriell Cell Repository, Camden, N.J.) is maintained as a suspension culture in RPMI 1640 (with L-Glutamine) supplemented with 10% fetal bovine serum and 1% penicillin-streptomycin in an atmosphere of 37° C. and 5% CO2. The AG04160C FAD lymphoblast cells are seeded in T-25 cm^2 flasks at 2.5 to 5.0×10^5 cells/ml in a total volume of 10 ml. Following 16-18 hours of growth, cells are treated with compound at concentrations of 0.1 μM, 1.0 μM, and 10 μM, and are incubated for an additional 24 hours. […] The total protein concentration in whole cell lysate samples is determined using the BCA method (Pierce). […] The β-catenin accumulation/stability is then quantified following densitometry analysis of protein bands. […]

3T3-L1 adipocytes = experiment: Glycogen Synthesis Assay (14C-glucose incorporation into glycogen); assay type: cell-based; conditions: 1 μM compound
Protocol: This test measures the increase in the production of glycogen both in the absence and in the presence of insulin in the cells. This test is done according to standard protocols. (See Berger and Hayes, A High-Capacity assay for Activators of Glucose Incorporation into Glycogen in L6 Muscle Cells, Analytical Biochemistry, 261, 159-163 (1998).)
Briefly, 3T3-L1 adipocytes are plated and differentiated in a 96-well plate at 25,000 cells/well. The plate is serum-starved overnight. The serum-starvation media is removed just prior to assay, and the plate is washed with 100 μl/well Krebs-Ringer-Hepes buffer (KRBH). The KRBH is removed and 50 μl of compound (twice the amount of the final concentration) is added to the assay plate. Next, 50 μl of ^14C-labeled glucose is added to the assay plate at 0.1 μCi/well. The plate is then incubated at 37° C. for 2 hours.
The plate is washed with 100 μL/well of PBS, and the cells are lysed with 75 μl/well of 1N NaOH. The plate is heated at 70° C. for 20 minutes. An aliquot (50 μl) of the supernatant is transferred from the assay plate to a Millipore FC filter plate containing 120 μl/well of ice-cold ethanol. The plate is allowed to stand for 2 hours at 4° C. to facilitate precipitation. The ethanol is removed from the filter plate via a vacuum manifold, and the plate is washed with 100 μL/well of ice-cold 70% ethanol. The plate was allowed to dry overnight, and 75 μl/well of Microscint-20 was added to the filter plate. The plate was then counted on a Packard Topcount.

ZDF rats = experiment: Glucose Lowering Assay; assay type: in vivo, rat; conditions: oral gavage once daily, relative to insulin
Protocol: This test measures the effect of the test compound on blood glucose and triglycerides relative to insulin. (See Eldar-Finkleman, et al, Expression and Characterization of Glycogen Synthase Kinase-3 Mutants and Their Effect on Glycogen Synthase Activity in Intact Cells, Proc. Nat. Acad. Sci., 93, 10228-10233 (1996).)
ZDF rats (Charles River, Inc.) at six weeks of age are housed individually with free access to food and water. Rats are dosed with drug once daily by oral gavage, with the compound prepared as a suspension in 1% caboxymethylcellusolve/0.25% Tween 80 (CMC-Tween). Vehicle controls are dosed with CMC-Tween only. The duration of study varied according to the protocol used, with acute dosing studies lasting one day and dose escalation studies lasting seven days. Body weights and food consumption measurements are also performed once a week for seven-day studies. For measurement of blood glucose and triglycerides, blood samples of 600 μl are collected by the tail snip method. (The tail snip for blood sampling is as follows: 1-2 mm of the tail is snipped with a sharp blade. After collection of blood, a scab forms at the site of wound. This scab is removed and the tail is gently massaged for other subsequent bleedings.) Glucose and triglyceride determinations are performed on a Hitachi 912 metabolic analyzer, with a kit utilizing the Trinder method. […]

[2] = Table II, 1 nM recombinant human GSK-3β, 50 μM ATP, 60 minutes at room temperature, read-out: GSK-3β IC50

Sequence of recombinant human GSK-3β (P49841 whole entry): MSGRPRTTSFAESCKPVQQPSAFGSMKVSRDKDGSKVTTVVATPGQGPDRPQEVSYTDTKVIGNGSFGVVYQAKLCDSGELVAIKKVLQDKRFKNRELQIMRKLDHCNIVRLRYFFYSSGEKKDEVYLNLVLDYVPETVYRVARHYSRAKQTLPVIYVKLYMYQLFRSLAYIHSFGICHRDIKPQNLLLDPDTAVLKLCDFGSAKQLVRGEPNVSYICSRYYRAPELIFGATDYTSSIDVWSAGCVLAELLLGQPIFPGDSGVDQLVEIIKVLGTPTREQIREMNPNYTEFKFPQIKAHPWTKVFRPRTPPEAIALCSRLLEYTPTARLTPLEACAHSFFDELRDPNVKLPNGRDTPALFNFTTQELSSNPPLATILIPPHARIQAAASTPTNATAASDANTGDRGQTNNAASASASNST

| SMILES | pIC50 (recombinant human GSK-3β; [2]) | further results |
| --- | --- | --- |
| CCN(CC)CCCc1cccc2c(C3=C(c4cccc5ccoc45)C(=O)NC3=O)cn(C)c12 [Example 102, 3-(Benzofur-7-yl)-4-[7-(3-diethylaminopropyl)-1-methyl-1H-indol-3-yl]pyrrole-2,5-dione] | 6.90 |  |
| Cn1cc(C2=C(c3ccc(O)c4ccoc34)C(=O)NC2=O)c2ccccc21 [Example 135, 3-(4-Hydroxybenzofur-7-yl)-4-(1-methyl-1H-indol-3-yl)pyrrole-2,5-dione] | 7.26 |  |
| Cl.Cn1cc(C2=C(c3cccc4ccoc34)C(=O)NC2=O)c2cc(OCCNCC3CC3)ccc21 [Example 119, 3-(Benzofur-7-yl)-4-{5-[2-(cyclopropylmethylamino)ethoxy]-1-methyl-1H-indol-3-yl}pyrrole-2,5-dione hydrochloride] | 8.02 | β-Catenin (fold increase) [1]: 4.9× fold; Glycogen Synthesis (fold increase at 1 μM) in absence of insulin (3T3-L1 adipocytes): 2.82× in absence of fold; Glycogen Synthesis (fold increase at 1 μM) in presence of insulin (3T3-L1 adipocytes): 2.13× in presence of fold |
| CC(C)CN[C@H]1CC[C@H](n2cc(C3=C(c4cccc5ccoc45)C(=O)NC3=O)c3c(F)cccc32)CC1 [Example 150, 3-(Benzofur-7-yl)-4-[4-fluoro-1-(4-trans-isobutylaminocyclohexyl)-1H-indol-3-yl]pyrrole-2,5-dione hydrochloride] | 7.97 | Glycogen Synthesis (fold increase at 1 μM) in absence of insulin (3T3-L1 adipocytes): 2.97× in absence of fold; Glycogen Synthesis (fold increase at 1 μM) in presence of insulin (3T3-L1 adipocytes): 3.92× in presence of fold; Glucose Lowering (percent increase vs. effect of insulin) (ZDF rats): 58% |
| Cn1ccc2c(C3=C(c4cn(CCCO)c5ccccc45)C(=O)NC3=O)cccc21 [Example 1, 3-(1-Methyl-1H-indol-4-yl)-4-[1-(3-hydroxypropyl)-1H-indol-3-yl]pyrrole-2,5-dione] | 6.76 |  |
| CCN(CC)CCCOc1ccc2c(c1)c(C1=C(c3cc(F)cc4ccoc34)C(=O)NC1=O)cn2C(C)C [Example 114, 3-(5-Fluorobenzofur-7-yl)-4-[5-(3-diethylaminopropoxy)-1-isopropyl-1H-indol-3-yl]pyrrole-2,5-dione hydrochloride] | 6.88 |  |
| COc1cc(C2=C(c3cn(CCN4CCN(C)CC4)c4ccccc34)C(=O)NC2=O)c2occc2c1 [Example 100, 3-(5-Methoxybenzofur-7-yl)-4-{1-[2-(4-methylpiperazin-1-yl)ethyl]-1H-indol-3-yl}pyrrole-2,5-dione] |  | pIC50 (recombinant human GSK-3β): 6.84 |
| O=C1NC(=O)C(c2cccc3ccoc23)=C1c1cn(C2CCNCC2)c2ccccc12 [Example 139, 3-(Benzofur-7-yl)-4-[1-(piperidin-4-yl)-1H-indol-3-yl]pyrrole-2,5-dione] | 8.24 |  |
| COc1ccc(C2=C(c3cn(CCCCN(C)C)c4ccccc34)C(=O)NC2=O)c2occc12 [Example 118] | 7.15 |  |
